Assay results from publication PMC10030653, “ClpC2 protects mycobacteria against a natural antibiotic targeting ClpC1-dependent protein degradation” (Communications Biology, 2023).
Numbered stars: 1 amine (or outer) side, 2 acyl side, 3 side chain; on linkers, the order of the positions; unused ones are H or OH. Square brackets hold non-standard residues; d marks the D form. Peptide text beside a SMILES is read from it. X1 = CC(C)([C@@H]1CO1)n1cc([C@@H](O)[C@H](N[*:1])C(=O)[*:2])c2ccccc21; Ala(3R-Me,3-isobutenyl) = CC(C)=C[C@@H](C)[C@H](N)C(=O)O; NMeLeu(5-OH,4R) = CN[C@@H](C[C@@H](C)CO)C(=O)O; Phe(βR-OMe) = CO[C@H](c1ccccc1)[C@H](N)C(=O)O; NMeL = CN[C@@H](CC(C)C)C(=O)O

Legend:
[1] = biological target: Mtb ClpC1 NTD (ClpC1^1-145) (Mycobacterium tuberculosis, UniProt P9WPC9); assay: biochemical; format: binding
ClpC2 [2] = format: cell-based, Mycobacterium smegmatis; conditions: Msm WT, OD600 0.5, 150 nM CymA, 37 °C, from 1 h to 8 h after addition
ClpC2 [3] = format: cell-based, Mycobacterium smegmatis; conditions: Msm, 150 nM CymA, around 8 h after addition
[4] = tested on: ClpC1 hexamer/ClpP1P2 tetradecamer (ClpC1P); assay: FITC-casein degradation assay; format: biochemical, Mycobacterium tuberculosis; conditions: 2 μM CymA
Procedure: Degradation of FITC-casein (Sigma) was carried out in 50 mM HEPES-KOH pH 7.1, 150 mM KCl, 20 mM MgCl2, 10% glycerol by 0.5 μM ClpC1 hexamer and 0.8 μM ClpP1P2 tetradecamer with the addition of 0.4 mM activator peptide benzyloxycarbonyl-L-leucyl-L-leucinal (PeptaNova), 0.5 mM DTT, 1 U/ml creatine phosphokinase, 20 mM phosphocreatine, 10 mM ATP at 37 °C. […] Whereas the effect of an excess of ClpC2 on the degradation of FITC-casein (10 μM) was carried out in the presence of 100 μM ClpC2. Fluorescence intensity increases upon degradation of FITC-casein as a consequence of fluorophore dequenching was monitored using the BioTek Synergy 2 Plate Reader with a 485/20 nm band-pass […] filter. Rates of degradation were determined from the initial slopes and used to determine the CymA-induced stimulation of ClpC1P activity at the different concentrations of ClpC2.

clpC2 mRNA = assay: RT-qPCR of clpC2 expression after CymA; format: cell-based, Mycobacterium smegmatis; conditions: Msm, 150 nM CymA; for Cq value ClpC2 / Cq value RpoB (reference gene): 1 h
[5] = tested on: ClpC2 / clpC2 operator DNA; assay: EMSA, ClpC2 binding to clpC2 operator DNA; set-up: species or system Mycobacterium tuberculosis; conditions: for fraction of DNA bound to ClpC2: 1 μM CymA
ClpC1 [6] = conditions: Msm, 150 nM CymA, 0-8 h
mycobacteria = conditions: cited from earlier work
Escherichia coli = conditions: cited from earlier work
Excerpt: (§1) CymA is a cyclic heptapeptide that is synthesised by the marine bacterium Streptomyces sp. CNB-982[33]–[35].

Staphylococcus aureus = conditions: cited from earlier work
Excerpt: as §1

ClpC1 NTD = conditions: cited from earlier work
ClpC1 [7] = conditions: cited from earlier work
Mycobacterium smegmatis = assay: Growth curves of Msm strains with CymA
Procedure: Mycobacterium smegmatis MC^2155 SMR5 and derived strains were routinely grown at 37 °C with shaking in DIFCO™ Middlebrook7H9 broth (BD) supplemented with 0.05% Tween 80 and 0.2% glycerol. The antibiotics apramycin (50 µg/ml) or hygromycin B (100 µg/ml) were added as needed. […] The DMSO concentration of cultures was maintained at less than 1% in all instances.
Msm cultures were diluted to an OD600 of 0.005 in 7H9. […] The cultures were grown at 37 °C with shaking (200 rpm) and the culture growth monitored by periodically measuring the OD600.

Sequence of Mtb ClpC1 NTD (ClpC1^1-145) (P9WPC9 1-145): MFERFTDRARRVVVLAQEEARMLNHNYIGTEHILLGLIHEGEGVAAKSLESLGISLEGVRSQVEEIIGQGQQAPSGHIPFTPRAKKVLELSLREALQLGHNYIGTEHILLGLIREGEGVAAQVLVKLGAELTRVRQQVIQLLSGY

CO[C@H](c1ccccc1)[C@@H]1NC(=O)[C@H](C)NC(=O)[C@H](C[C@@H](C)CO)N(C)C(=O)[C@H]([C@H](O)c2cn(C(C)(C)[C@@H]3CO3)c3ccccc23)NC(=O)[C@H]([C@H](C)C=C(C)C)NC(=O)[C@H](CC(C)C)N(C)C(=O)[C@H](C(C)C)NC1=O [CymA, cyclomarin A] (cyclo(A[Phe(βR-OMe)]V[NMeL][Ala(3R-Me,3-isobutenyl)][X1][NMeLeu(5-OH,4R)]))
Kd [1]: 2.3 nM
ClpC2 Western blot signal (ClpC2 [2]): increases by several orders of magnitude
ClpC2 level in excess of ClpC1 (ClpC2 [3]): 84 fold
FITC-casein degradation rate ([4]; 0 μM ClpC2, 37 °C, replicate 1): 8.073 min⁻¹
FITC-casein degradation rate ([4]; 0 μM ClpC2, 37 °C, replicate 2): 7.688 min⁻¹
FITC-casein degradation rate ([4]; 0 μM ClpC2, 37 °C, replicate 3): 7.795 min⁻¹
FITC-casein degradation rate ([4]; 0.2 μM ClpC2, 37 °C, replicate 1): 7.586 min⁻¹
FITC-casein degradation rate ([4]; 0.2 μM ClpC2, 37 °C, replicate 2): 7.529 min⁻¹
FITC-casein degradation rate ([4]; 0.2 μM ClpC2, 37 °C, replicate 3): 6.77 min⁻¹
FITC-casein degradation rate ([4]; 0.5 μM ClpC2, 37 °C, replicate 1): 6.271 min⁻¹
FITC-casein degradation rate ([4]; 0.5 μM ClpC2, 37 °C, replicate 2): 6.851 min⁻¹
FITC-casein degradation rate ([4]; 0.5 μM ClpC2, 37 °C, replicate 3): 6.213 min⁻¹
FITC-casein degradation rate ([4]; 1 μM ClpC2, 37 °C, replicate 1): 6.248 min⁻¹
FITC-casein degradation rate ([4]; 1 μM ClpC2, 37 °C, replicate 2): 6.426 min⁻¹
FITC-casein degradation rate ([4]; 1 μM ClpC2, 37 °C, replicate 3): 5.933 min⁻¹
FITC-casein degradation rate ([4]; 2 μM ClpC2, 37 °C, replicate 1): 4.9721 min⁻¹
FITC-casein degradation rate ([4]; 2 μM ClpC2, 37 °C, replicate 2): 4.555 min⁻¹
FITC-casein degradation rate ([4]; 2 μM ClpC2, 37 °C, replicate 3): 5.043 min⁻¹
FITC-casein degradation rate ([4]; 4 μM ClpC2, 37 °C, replicate 1): 4.194 min⁻¹
FITC-casein degradation rate ([4]; 4 μM ClpC2, 37 °C, replicate 2): 4.045 min⁻¹
FITC-casein degradation rate ([4]; 4 μM ClpC2, 37 °C, replicate 3): 3.662 min⁻¹
FITC-casein degradation rate ([4]; 8 μM ClpC2, 37 °C, replicate 1): 3.41 min⁻¹
FITC-casein degradation rate ([4]; 8 μM ClpC2, 37 °C, replicate 2): 3.29 min⁻¹
FITC-casein degradation rate ([4]; 8 μM ClpC2, 37 °C, replicate 3): 3.596 min⁻¹
FITC-casein degradation rate ([4]; 12 μM ClpC2, 37 °C, replicate 1): 3.454 min⁻¹
FITC-casein degradation rate ([4]; 12 μM ClpC2, 37 °C, replicate 2): 2.89 min⁻¹
FITC-casein degradation rate ([4]; 12 μM ClpC2, 37 °C, replicate 3): 2.828 min⁻¹
FITC-casein degradation rate ([4]; 18 μM ClpC2, 37 °C, replicate 1): 3.091 min⁻¹
FITC-casein degradation rate ([4]; 18 μM ClpC2, 37 °C, replicate 2): 2.23 min⁻¹
FITC-casein degradation rate ([4]; 18 μM ClpC2, 37 °C, replicate 3): 2.386 min⁻¹
Cq value ClpC2 (clpC2 mRNA; replicate 1): 21.9726
Cq value RpoB (reference gene) (clpC2 mRNA; replicate 1): 23.9629
Cq value ClpC2 (clpC2 mRNA; replicate 2): 21.7648
Cq value RpoB (reference gene) (clpC2 mRNA; replicate 2): 24.1812
Cq value ClpC2 (clpC2 mRNA; replicate 3): 20.9483
Cq value RpoB (reference gene) (clpC2 mRNA; replicate 3): 23.5984
increase in clpC2 mRNA (clpC2 mRNA; one hour, normalised to rpoB, biological n = 3, P = 0.0015 (two-tailed unpaired t test)): 263 fold
fraction of DNA bound to ClpC2 ([5]; 1 nM ClpC2, replicate 1): 0
fraction of DNA bound to ClpC2 ([5]; 1 nM ClpC2, replicate 2): 0.02788
fraction of DNA bound to ClpC2 ([5]; 1 nM ClpC2, replicate 3): 0.04348
fraction of DNA bound to ClpC2 ([5]; 2 nM ClpC2, replicate 1): 0
fraction of DNA bound to ClpC2 ([5]; 2 nM ClpC2, replicate 2): 0.03704
fraction of DNA bound to ClpC2 ([5]; 2 nM ClpC2, replicate 3): 0.05455
fraction of DNA bound to ClpC2 ([5]; 5 nM ClpC2, replicate 1): 0.09091
fraction of DNA bound to ClpC2 ([5]; 5 nM ClpC2, replicate 2): 0.08
fraction of DNA bound to ClpC2 ([5]; 5 nM ClpC2, replicate 3): 0.06873
fraction of DNA bound to ClpC2 ([5]; 10 nM ClpC2, replicate 1): 0.1629
fraction of DNA bound to ClpC2 ([5]; 10 nM ClpC2, replicate 2): 0.1615
fraction of DNA bound to ClpC2 ([5]; 10 nM ClpC2, replicate 3): 0.1694
fraction of DNA bound to ClpC2 ([5]; 15 nM ClpC2, replicate 1): 0.2974
fraction of DNA bound to ClpC2 ([5]; 15 nM ClpC2, replicate 2): 0.2686
fraction of DNA bound to ClpC2 ([5]; 15 nM ClpC2, replicate 3): 0.2612
fraction of DNA bound to ClpC2 ([5]; 25 nM ClpC2, replicate 1): 0.5671
fraction of DNA bound to ClpC2 ([5]; 25 nM ClpC2, replicate 2): 0.4781
fraction of DNA bound to ClpC2 ([5]; 25 nM ClpC2, replicate 3): 0.3902
fraction of DNA bound to ClpC2 ([5]; 50 nM ClpC2, replicate 1): 0.7982
fraction of DNA bound to ClpC2 ([5]; 50 nM ClpC2, replicate 2): 0.7344
fraction of DNA bound to ClpC2 ([5]; 50 nM ClpC2, replicate 3): 0.731
effect of CymA on ClpC2-operator DNA binding ([5]; EMSA, 1 µM CymA, room temperature, 20 min, pH 7.5): noticeable inhibitory effect on the interaction between ClpC2 and its operator site
ClpC1 level after CymA (ClpC1 [6]): remained fairly constant
activity against mycobacteria (mycobacteria): effective against mycobacteria
activity against Escherichia coli (Escherichia coli): little activity
activity against Staphylococcus aureus (Staphylococcus aureus): little activity
target binding domain (ClpC1 NTD): specifically target ClpC1 NTD
effect on ClpC1 ATPase and proteolytic activity (ClpC1 [7]): enhance the ATPase and proteolytic activity as well as reduce substrate specificity of ClpC1
growth of ΔclpC2 with CymA (Mycobacterium smegmatis; Msm ΔclpC2, sub-MIC50 CymA (150 nM), 7H9, 37 °C, vs parent strain): diminished growth compared to the parent strain
growth of comclpC2 F99A with CymA (Mycobacterium smegmatis; Msm ΔclpC2 complemented with clpC2 F99A, 150 nM CymA, 7H9, 37 °C): attenuated growth upon exposure to CymA
growth of comclpC2 R188A/R192A with CymA (Mycobacterium smegmatis; Msm ΔclpC2 complemented with clpC2 R188A/R192A, in the presence of CymA): lack of growth impairment
growth of comclpC2 WT with CymA (Mycobacterium smegmatis; Msm ΔclpC2 complemented with clpC2 WT, 150 nM CymA, 7H9, 37 °C): the WT phenotype was restored
